Results as given in patent US20070111251A1, “Chemical address tags” (priority 2003, published 2007).

Tests used:
[1] = test system: mitochondria; assay: QSLR factorial logistic regression of mitochondrial localization (affinity coefficients, cross-validated prediction); set-up: species or system human; conditions: for αi^mito: influence of A group on mitochondrial localization, greater = stronger; for estimated A group affinity coefficient ai / estimated B group affinity coefficient bj: mitochondrial affinity; for estimated A group affinity coefficient ai: ±5 for groups always or never mitochondrial; for βj^mito: influence of B group on mitochondrial localization
Description: The first column and first row contain the A group and B group labels. The second column and second row contain the estimated A group and B group affinity coefficients (ai and bj respectively). The interior of the table contains the value sij=ai+bj for each compound (where positive values of sij indicate predicted localization to mitochondria, and negative values of sij indicate predicted localization to a non-mitochondrial compartment). The subscript m indicates experimentally determined mitochondrial localization. The subscript o indicates experimentally determined non-mitochondrial localization. The darkened boxes indicate correctly predicted mitochondrial localizations under cross-validation.
Based on this matrix, factorial logistic regression (See, A. Agresti, Categorical Data Analysis, Wiley [2002]) was used to calculate mitochondrial affinity coefficients (ai and bj) for each A and B moiety. (Table 1). Since it is not necessary to observe all possible pairings between A and B building blocks to estimate the affinity coefficients, the QSLR approach can predict localization of unmeasured styryl molecules based on a minimal set of experimentally-determined localizations (see Methods). The methods of the present invention allow assessment of predictivity using the cross-validation technique by holding out one compound and fitting the affinity coefficients using the remaining compounds, predictivity can be assessed by comparing the actual localization of the held-out compound to its predicted localization. Repeating this for every measured compound in the library yields an error rate for the procedure.
Briefly, this technique assigns quantitative scores to each A group (αi^mito) and to each B group (βj^mito), in such a way that αi^mito+βj^mito is positive for compounds with mitochondrial localization, and is negative for compounds lacking mitochondrial localization. […] In additional embodiments, same analysis can be applied to organelles other than mitochondria, provided there are a sufficient number of localizations to specific non-mitochondrial organelles in the combinatorial library of interest for reliable statistical calculations.
In certain embodiments, the predictive performance of the above method was assessed using a cross-validation approach by calculating the proportion of all compounds that are correctly predicted. For cross-validation, each styryl product was set aside in sequence, and the factorial logistic model was fit to the remaining data. Then the resulting A and B scores for the held-out compound were summed. If the sum was positive, the held-out compound was predicted to be mitochondrial, while if the sum was negative, the held-out compound was predicted to be non-mitochondrial. […] The baseline performance of the method scored 104 correct out of 145, or 72%. This number is highly statistically significant compared to random guessing (p-value ˜10^−7). Thus, across the entire library, A and B moieties appear to contribute to localization in an independent, additive fashion.
In some embodiments, subcellular localization data were converted to binary (0/1) values by assigning a value Gij=1 if compound i,j localized to mitochondria (even if it localized to other […] as well), and assigning Gij=0 if compound i,j localized exclusively to any non-mitochondrial cellular structure. Compounds with no localization were omitted from this part of the analysis. The αi and βj coefficients for A or B groups that are always observed to localize to mitochondria, or that never localize to mitochondria, were set to +/−5, respectively. The binary localization data were analyzed using factorial logistic regression. […]

[2] = Additive decomposition of peak excitation and emission wavelengths (model coefficients of A and B groups); conditions: for αi^em: influence of A group on peak emission wavelength; for αi^em / αi^ex: A group 1 as baseline; for αi^ex: influence of A group on peak excitation wavelength; for βj^em: influence of B group on peak emission wavelength; for βj^em / βj^ex: B group 1 as baseline; for βj^ex: influence of B group on peak excitation wavelength
Description: The chemical structure of the styryl library is illustrated in FIG. 3. […] Initial analysis focused on measurements of peak emission and excitation wavelength obtained for all styryl products showing a single, localized peak (there were 256 such compounds for emission wavelength, and 193 compounds for excitation wavelength). […] The wavelength for the styryl compound formed by joining A group i with B group j is denoted as λij (or more specifically, λij^ex for excitation wavelength and λij^em for emission wavelength). The additive model λij=ai+βj+εij was fit to the data using least squares yielding parameters αi^ex, αi^em, βj^ex, and βj^em that quantify the influence of each A and B group on the spectrum of the styryl product. […] (FIGS. 8A-8B). […] The predictions were made ignoring interactions between the two functional moieties in the styryl compound. The predicted values were obtained without bias, by holding out the data point to be predicted when training the model.
In preferred embodiments, using the cross-validation approach disclosed herein, each compound was held out in sequence, the model was trained using the remaining compounds, then the wavelength value for the held-out compound was predicted based on the resulting fitted model. This process produced correlations between measured and predicted values of ρ^em=0.78 (emission) and ρ^ex=0.69 (excitation).
Based on this analysis, the contribution of the A and B functional groups to the fluorescence of the styryl product is quantified using the fitted coefficients αi^ex, βj^ex, […], and βj^em. Since these coefficients are on a scale without origin, in some embodiments, the invention uses the first A group and B group as a baseline, so […], β1^ex=0, and so on. Table 3 contains the model coefficients of all A and B groups for peak excitation and emission wavelength.
Greater values of αi^ex, αi^em, βj^ex, and βj^em indicate greater peak wavelength. Greater values of αi^mito and […] indicate stronger mitochondrial localization. A groups 40 and 41 were not screened for localization. A groups 2, 29, and 33 only formed fluorescent products with a single B group, so were not included in the spectral analysis.
In some embodiments, the wavelength values for peak excitation and emission were fit to the additive model λij=αi+βj+εij, where εij denotes error that is made as small as possible in the fitting process. Using least squares to minimize the function [formula] over all compounds having experimental data yields coefficient estimates αi for each A group and βj for each B group. One set of coefficient estimates is obtained for the excitation values and another set is obtained for the emission values. To predict the wavelength of a new compound formed from A and B groups i* and j* the sum αi*+βj* is used.
In some embodiments, for both the spectral and localization analysis, cross-validation was used to obtain unbiased estimates of the prediction performance. Each compound was held out in sequence, and the coefficients αi and βj were fit to the remaining compounds. These values were then used to form a prediction for the held out compound, then the predicted and experimental values were compared to obtain a measure of the accuracy of prediction. Since the wavelength values are on a continuous scale, the predicted values were compared to the experimental values using Pearson correlation coefficients. The localization values are dichotomous, so the proportion of matching predictions was used to compare predicted and experimental localization values.

SMILES	βj^em [2] [nm]	βj^ex [2] [nm]	αi^mito [1]	estimated A group affinity coefficient ai [1]	influence of group on peak wavelength [2]	αi^em [2] [nm]	αi^ex [2] [nm]	βj^mito [1]	estimated B group affinity coefficient bj [1]
CN(C)c1ccc(C=CC=O)cc1 [A group 37]			−0.9	−0.9	strongly contribute towards the red end of the spectrum	122.1	82.9		
COc1cc(OC)c(OC)cc1C=O [A group 38]			−1.3	−1.3		22.2	−15.6		
O=Cc1ccc2c(c1)OCO2 [A group 39]			0.0	0.0		−25.3	−28.3		
Cc1cc[n+](C)cc1.[I-] [B group 1]	0.0	0.0						1.9	1.9
Cc1cc[n+](C23CC4CC(CC(C4)C2)C3)cc1.[Br-] [B group 2]	4.3	4.9						2.0	2.0
CCc1ccc(C)[n+](C)c1.[I-] [B group 5]	−7.6	−1.6						2.2	2.3
Cc1cc[n+](C)c2ccccc12.[I-] [B group 7]	63.7	29.6			strongly contribute towards the red end of the spectrum			3.5	3.5
Cc1ccc2ccccc2[n+]1C.[I-] [B group 8]	64.8	53.0			strongly contribute towards the red end of the spectrum			0.4	0.4
COc1ccc2c(ccc(C)[n+]2C)c1.[I-] [B group 9]	35.0	−0.1			strongly contribute towards the red end of the spectrum			−2.0	−2.0
Cc1ccnc(-c2cc(C)cc[n+]2C)c1.[I-] [B group 10]	19.8	1.6						0.8	0.8
Cc1cc(C)[n+](C)c(C)c1.[I-] [B group 13]	−1.8	−1.1						2.5	2.5
Cc1cnc2c(ccc3c(C)c(C)c[n+](C)c32)c1C.[I-] [B group 14]	57.9	100.6			strongly contribute towards the red end of the spectrum			0.0	0.1

More lines, main results first:

βj^em [2] [nm]	βj^ex [2] [nm]	SMILES	αi^mito [1]	estimated A group affinity coefficient ai [1]	influence of group on peak wavelength [2]	αi^em [2] [nm]	αi^ex [2] [nm]	βj^mito [1]	estimated B group affinity coefficient bj [1]
−2.7	−12.7	Cc1cccc[n+]1C.[I-] [B group 3]						4.2	4.2
−23.2	−32.3	Cc1ccc[n+](C)c1C.[I-] [B group 4]						3.0	3.0
3.5	27.7	Cc1cc[n+](C)c(Br)c1.[I-] [B group 6]						−5.0	−5.0
−4.1	−4.2	Cc1cc[n+](C)c(C)c1.[I-] [B group 11]						2.1	2.1
−1.7	−10.2	Cc1cccc(C)[n+]1C.[I-] [B group 12]						2.7	2.7
